The values that follow are results of earlier work, collected in patent EP2893919B1, “Formulation of aprepitant with enhanced solubility” (SANOFI, priority 2014, dated 2015).

For series [1] the following is noted: pH range 2 to 10.

Some results are limits rather than exact numbers.

With `C[C@@H](O[C@H]1OCCN(Cc2n[nH]c(=O)[nH]2)[C@H]1c1ccc(F)cc1)c1cc(C(F)(F)F)cc(C(F)(F)F)c1` [Aprepitant, 5-([(2R,3S)-2-((R)-1-[3,5-bis(trifluoromethyl)phenyl]ethoxy)-3-(4-fluorophenyl)morpholino]methyl)-1H-1,2,4-triazol-3(2H)-one], the Caco-2 permeability in the series with Caco-2 is 7.85 ×10⁻⁶ cm/s. In series [1], the solubility in water was less than 10 µg/mL.
